In patent US9834525B2, “Inhibitors of paxillin function and related compositions and methods” (UNIVERSITY OF TENNESSEE RESEARCH FOUNDATION, priority 2015, dated 2017):
Entries after “also recorded” stand apart in the source; their conditions may differ.

Key:
Pkd1 V/V mouse = test: Dermal microemulsion delivery to Pkd1 cystic mice (ADPKD model); assay type: in vivo; details: dermal application as microemulsion, neonatal Pkd1 mice
From the text: Paxillin is abnormally expressed in cystic epithelial cells in a mouse model of ADPKD. […] For this reason, paxillin can be considered to act as a “rheostat” that can be targeted to curtail cystogenesis.
The paxillin inhibitor compound (II-4) inactivates phosphorylation at Y118 on paxillin using retinal endothelial cells. Compound (II-4) has been formulated as a microemulsion for non-invasive delivery to neonatal Pkd1 non-cystic and cystic mice and it has been observed that renal cystic disease was attenuated as measured by total kidney-to-body weight ratio.
FIG. 4: Paxillin in ADPKD kidneys. (A) Immunoblot of total paxillin in protein lysates from non-cystic Pkd1^+/+ (n=5) and cystic Pkd1^V/V (n=3) mouse kidneys at post-natal day 11 after 8 days of dermal application of compound (II-4) microemulsion solution. GAPDH was used as a loading control. Densitometry of the bands normalized to GAPDH is shown for (B) paxillin and (C) phospho-paxillin (C). * P<0.005 difference between groups.

[1] = test system: retinal endothelial cells (REC); test: Annexin V/PI apoptosis analysis by flow cytometry in REC; assay type: cell-based, human
Procedure: Harvested cells were washed twice with cold PBS/2% FBS. Pelleted cells were resuspended in Annexin V Binding Buffer (BioLegend, San Diego, Calif.) at a concentration of 5.0×10^6 cells/mL following manufacturer's instructions. 5.0×10^5 cells (100 μL) were labeled with 5 μL of FITC Annexin V and 10 μL of Propidium Iodide (PI) solution. Cells were vortexed gently and incubated for 15 minutes at RT in dark. 300 μL of Annexin V Binding Buffer were added to each sample tube and analyzed in BD LSRII Flow Cytometry Analyzer (BD Biosciences, San Jose, Calif.). Apoptotic cells were defined as Annexin V^+PI^neg while necrotic cells are defined as Annexin V^+PI^+. […]
To investigate the potential of compound (II-4) affecting the proliferative capacity of RECs treated with VEGF, proliferation was measured using the metabolic assay based on the tetrazolium salt, WST-1. […] Cells were harvested and apoptosis measured with Annexin-V/Propidium Iodide (PI) staining and analyzed using flow cytometry.
FIG. 18: REC Proliferation and Flow cytometry analysis of apoptosis in REC. A) VEGF-induced cellular proliferation was assessed using the WST-1 metabolic assay. […] B) Apoptosis was measured using Annexin V/PI staining Compound (II-4) (1 μM) appears to be non-cytotoxic to retinal endothelial cells after 24 hour incubation (n≈10,000 cells).

AKT in OMM 2.5 cells = test: Western blot of pAKT/AKT in HGF-stimulated metastatic UM cells; assay type: cell-based, human; details: HGF-stimulated OMM 2.5 cells, harvest after 4 hrs
Procedure: REC, Mel 270, OMM 2.5 under Hepatocyte Growth Factor (HGF) or Vascular Endothelial Growth Factor (VEGF) stimulation conditions: Cell lysates were collected in RIPA lysis buffer (50 mM Tris-HCl, pH 7.4, 150 mM NaCl, 2 mM EDTA, 1% Nonidet P-40, 0.1% SDS) with protease 1× inhibitor cocktail (Roche; Indianapolis, Ind.). Lysates were kept on ice and centrifuged at 10,000×g×10 minutes and total protein was measured using the BCA assay (Pierce, Rockford, Ill.). Protein samples were mixed with 4×LDS loading buffer with 2.5% 2-mercaptoethanol (Sigma-Aldrich), heated to 70° C. for 10 minutes, and loaded on NuPAGE 4-12% Bis-Tris gel (Invitrogen, Carlsbad, Calif.). Immunoblotting was performed with nitrocellulose membranes (Bio-Rad, Hercules, Calif.) at 170-mA start and 110-mA end at 25 V for two hours in NuPAGE transfer buffer (Invitrogen) containing 20% methanol. […] Dual-channel infrared scan and quantitation of immunoblots were conducted using the ODYSSEY Sa infrared imaging system with Image Studio (Ver. 3.1.4) (LI-COR).
FIG. 16: Paxillin inhibition reduced pAKT signaling in metastatic UM cells. A, Representative Western Blot of total and phosphorylated paxillin in metastatic UM cells, as in FIG. 4A-B. B, Quantitation from n=3. […] Lysates were measured by Western Blot. […]

## COc1cc(C2OC(=O)Nc3c2ccc2ccccc32)cc(OC)c1OC (stereo not shown) [compound II-4]
Pkd1 V/V mouse
  renal cystic disease / cystic disease progression (total kidney-to-body weight ratio): functional reduction in cystic disease progression; also recorded: attenuated
[1]; 1 μM for 4-hrs
  spontaneous apoptosis in REC (PI and Annexin V): did not cause an increase in spontaneous apoptosis
[1]; 1 μM for 24 hours
  apoptosis / cytotoxicity in REC (Annexin-V/PI): No evidence of apoptosis was detected; also recorded: non-cytotoxic
AKT in OMM 2.5 cells
  pAKT/AKT: significant reduction
